Assay [1] concerns WT-LRRK2 or G2019S-LRRK2. The assay can be described thus: Inhibition of LRRK2 phosphorylation (pS935 antibody) in lysates of transfected HEK-293T cells. The format is cell-based. As to conditions: HEK-293T cells transiently transfected with either WT-LRRK2 or G2019S-LRRK2. From the text: To test whether Example 90 and Example 34 can inhibit LRRK2 phosphorylation, an antibody commercially available from Epitomics directed against the serine residue number 935 on LRRK2 from lysates generated from HEK-293T cells transiently transfected with either WT-LRRK2 or G2019S-LRRK2 protein.

Assay [2] concerns the target T1, LRRK2 (G2019S) (Homo sapiens, UniProt Q5S007, G2019S).
T1 construct: Recombinant GST-LRRK2 (delta970), purified from baculovirus infected insect cells (SF9); GST (N); host or cells: baculovirus infected insect cells (SF9)
The assay can be described thus: LRRK2 inhibition, radiometric kinase assay with recombinant GST-LRRK2 (delta970) and peptide substrate. The format is biochemical. As to conditions: GST-LRRK2 (delta970) G2019S 30 nM, ATP ~52 μM (Km), 30 min at 30° C. An outline of the steps: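 Recombinant GST-LRRK2 (delta970) from SF9 cells, wild-type or G2019S, at 30 nM in 50 mM Tris HCl pH 7.4, 1 mM EDTA with 50 μM peptide substrate and 0.1% DMSO. ATP at Km (˜92 μM WT, ˜52 μM G2019S) with 10 mM MgCl2 and gamma-32-P label; 30 min at 30° C. Phosphocellulose capture, scintillation counting.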

Assay [3] concerns G2019S-LRRK2. The assay can be described thus: LPS-induced TNF-alpha in primary macrophages over-expressing G2019S-LRRK2. It counts as cell-based, mice. Conditions: 5 μM 1 hour prior to LPS stimulation (100 ng/ml), TNF-alpha measured 6 hours later. The source says:
Recently, high levels of LRRK2 expression in primary microglia that are the immune cells of the nervous system have been discovered (Moehle et al., J. Neuroscience (2012), PMID 22302802). […] More recently, LRRK2 has also been detected in primary macrophages, specifically macrophages isolated after thioglycolate exposures in mice. To assess whether Example 90 can inhibit the G2019S-LRRK2 induced increase in TNF-alpha to wild-type levels of TNF-alpha induction by LPS, primary macrophages were exposed in culture to 5 μM 1 hour prior to LPS stimulation (100 ng/ml), and TNF-alpha levels were measured 6 hours later.

Results on five compounds are retold here after patent publication US9187484B2 (Southern Research Institute, priority 2012, dated 2015).

T1 sequence (Q5S007 970-2527 G2019S limits assumed): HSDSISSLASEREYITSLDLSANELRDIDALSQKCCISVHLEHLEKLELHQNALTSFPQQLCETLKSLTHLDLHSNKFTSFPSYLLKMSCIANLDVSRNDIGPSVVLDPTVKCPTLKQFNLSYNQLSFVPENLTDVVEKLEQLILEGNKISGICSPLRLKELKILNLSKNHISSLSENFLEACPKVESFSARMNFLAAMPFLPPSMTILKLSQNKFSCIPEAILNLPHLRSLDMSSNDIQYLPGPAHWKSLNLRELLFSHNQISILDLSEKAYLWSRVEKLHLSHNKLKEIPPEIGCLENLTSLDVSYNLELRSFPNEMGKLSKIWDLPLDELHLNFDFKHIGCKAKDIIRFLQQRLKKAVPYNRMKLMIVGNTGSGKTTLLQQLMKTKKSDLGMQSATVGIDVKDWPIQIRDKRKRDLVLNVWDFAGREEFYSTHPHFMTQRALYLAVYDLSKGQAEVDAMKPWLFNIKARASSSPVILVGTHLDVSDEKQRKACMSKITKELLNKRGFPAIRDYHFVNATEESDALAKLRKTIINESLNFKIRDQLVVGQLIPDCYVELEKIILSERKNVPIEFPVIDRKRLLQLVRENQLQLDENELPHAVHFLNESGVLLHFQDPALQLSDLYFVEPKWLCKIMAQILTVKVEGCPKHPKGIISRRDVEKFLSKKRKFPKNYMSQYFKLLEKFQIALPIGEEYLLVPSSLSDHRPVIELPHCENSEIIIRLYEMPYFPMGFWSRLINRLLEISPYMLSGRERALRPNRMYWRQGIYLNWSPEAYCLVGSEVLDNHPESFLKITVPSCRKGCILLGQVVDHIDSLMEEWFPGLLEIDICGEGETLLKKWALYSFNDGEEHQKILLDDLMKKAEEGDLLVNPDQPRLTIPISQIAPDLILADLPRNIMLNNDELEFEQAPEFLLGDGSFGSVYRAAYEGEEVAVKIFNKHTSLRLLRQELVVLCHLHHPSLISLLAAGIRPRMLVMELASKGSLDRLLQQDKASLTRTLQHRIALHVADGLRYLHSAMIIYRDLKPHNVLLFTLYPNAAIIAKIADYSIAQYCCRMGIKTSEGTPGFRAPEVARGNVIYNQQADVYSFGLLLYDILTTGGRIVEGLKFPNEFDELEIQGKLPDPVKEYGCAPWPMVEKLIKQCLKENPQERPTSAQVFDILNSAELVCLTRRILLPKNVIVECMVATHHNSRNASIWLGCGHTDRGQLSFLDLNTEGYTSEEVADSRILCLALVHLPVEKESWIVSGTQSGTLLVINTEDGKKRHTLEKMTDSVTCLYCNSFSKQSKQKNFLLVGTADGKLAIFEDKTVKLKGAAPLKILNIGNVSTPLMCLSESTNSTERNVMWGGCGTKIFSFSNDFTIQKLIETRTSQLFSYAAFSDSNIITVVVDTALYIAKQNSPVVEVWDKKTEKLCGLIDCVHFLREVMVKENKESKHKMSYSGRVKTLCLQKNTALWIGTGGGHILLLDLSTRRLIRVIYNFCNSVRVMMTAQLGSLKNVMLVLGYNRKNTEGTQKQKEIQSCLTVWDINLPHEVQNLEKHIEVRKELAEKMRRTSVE

Take `CCC(Sc1ccc2nnc(-c3cccs3)n2n1)C(=O)N1CCCCC1` (centres unmarked) [Example 34, 1-(piperidin-1-yl)-2-((3-(thiophen-2-yl)-[1,2,4]triazolo[4,3-b]pyridazin-6-yl)thio)butan-1-one]: the “levels of pS935 on LRRK2” value in assay [1] is on record as “partially inhibited”. For the same compound, the IC50 in assay [2] was under 100 nM.

As to `CC(Sc1ccc2nnc(-c3cccs3)n2n1)C(=O)N1CCCCC1` (centres unmarked) [Example 90, 1-(piperidin-1-yl)-2-((3-(thiophen-2-yl)-[1,2,4]triazolo[4,3-b]pyridazin-6-yl)thio)propan-1-one], the “levels of pS935 on LRRK2” value in assay [1] was “partially inhibited”. Moreover, the IC50 in assay [2] is under 100 nM. Besides, in assay [3], the “TNF-alpha levels (G2019S-LRRK2 induced increase)” value is given as “successfully returned G2019S-LRRK2 over-expressing cells back to WT levels”. As to `CC(Sc1ccc2nnc(-c3nccs3)n2n1)C(=O)O` (centres unmarked) [Example 124, 2-((3-(thiazol-2-yl)-[1,2,4]triazolo[4,3-b]pyridazin-6-yl)thio)propanoic acid], the IC50 in assay [2] was 100 to 1000 nM. Same read-out and setting: the result for `CC(Sc1ccc2nnc(-c3nccs3)n2n1)C(=O)N1CCCCC1` (centres unmarked) [Example 125, 1-(piperidin-1-yl)-2-((3-(thiazol-2-yl)-[1,2,4]triazolo[4,3-b]pyridazin-6-yl)thio)propan-1-one] reads 100 to 1000 nM; that for `CC(Sc1ccc2nnc(-c3nccs3)n2n1)C(=O)N1CCC1` (centres unmarked) [Example 126, 1-(azetidin-1-yl)-2-((3-(thiazol-2-yl)-[1,2,4]triazolo[4,3-b]pyridazin-6-yl)thio)propan-1-one], 100 to 1000 nM.

In general, IC50 refers to the point on the concentration scale where inhibition reaches its midpoint.
